In one experiment the target is human cathepsin K (UniProt P43236, Y175D/V274L, species not given). The experiment in a line: Cathepsin K Assay. In kind it is biochemical. The note with it: IP from dose response curve; Z-Leu-Arg-AMC substrate, pH 5.5; read-out: hrbCat K (IP (nM)).
Another experiment deals with T1, human cathepsin F (Homo sapiens, UniProt Q9UBX1).
T1 sequence (Q9UBX1 271-484): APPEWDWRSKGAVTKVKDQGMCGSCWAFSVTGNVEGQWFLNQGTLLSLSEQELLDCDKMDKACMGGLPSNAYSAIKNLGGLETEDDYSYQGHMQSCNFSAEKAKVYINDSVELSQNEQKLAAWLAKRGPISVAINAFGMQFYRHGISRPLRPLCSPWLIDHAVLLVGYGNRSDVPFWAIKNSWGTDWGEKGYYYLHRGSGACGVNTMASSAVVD
The experiment in a line: Cathepsin F Assay. Format: biochemical. The conditions noted are these: IP from dose response curve; Z-Phe-Arg-AMC substrate, pH 5.5; read-out: hCat F (IP (nM)). In outline: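 Human cathepsin F (10 nM) preincubated 15 min at room temperature with compounds in 50 mM MES pH 5.5, 2.5 mM EDTA, 2.5 mM DTT, 10% DMSO. Z-Phe-Arg-AMC (8 μM) added; AMC release read by fluorescence (Ex 360/Em 460 nm) over 20 min, inhibition fit to dose-response model.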

In the case of `CN=S1(=O)CCN(c2ccc(-c3cn(-c4ccc(F)cn4)nc3[C@@H]3CCCC[C@H]3C(=O)NC3(C#N)CC3)cc2)CC1` [Example 156, (1R,2R)-N-(1-cyanocyclopropyl)-2-(1-(5-fluoropyridin-2-yl)-4-(4-(1-(methylimino)-1-oxidothiomorpholino)phenyl)-1H-pyrazol-3-yl)cyclohexanecarboxamide], the IC50 at human cathepsin K was 1.47 nM; at human cathepsin F, 945 nM.

Regarding `Cc1c(-c2ccc(N3CCS(=O)(=O)CC3)cc2)c([C@@H]2CCCC[C@H]2C(=O)NC2(C#N)CC2)nn1-c1ccc(F)cn1` [Example 157, (1R,2R)-N-(1-cyanocyclopropyl)-2-(4-(4-(1,1-dioxidothiomorpholino)phen-yl)-1-(5-fluoropyridin-2-yl)-5-methyl-1H-pyrazol-3-yl)cyclohexanecarboxamide], the values for the IC50 on human cathepsin K and on human cathepsin F were 4.26 nM and 2980 nM, respectively.

Take `CN=S1(=O)CCN(c2ccc(-c3cn(-c4ccc(F)cn4)nc3[C@@H]3CC[C@H](F)C[C@H]3C(=O)NC3(C#N)CC3)cc2)CC1` [Example 159, (1R,2R,5S)-N-(1-cyanocyclopropyl)-5-fluoro-2-(1-(5-fluoropyridin-2-yl)-4-(4-(1-(methylimino)-1-oxidothiomorpholino)phenyl)-1H-pyrazol-3-yl)cyclohexanecarboxamide]: the IC50 turned out to be 3.22 nM at human cathepsin K and 1410 nM at human cathepsin F.

With `N#CC1(NC(=O)[C@@H]2CCCC[C@H]2c2nn(-c3cccnn3)cc2-c2ccc(N3CCS(=O)(=O)CC3)cc2)CC1` [Example 161, (1R,2R)-N-(1-cyanocyclopropyl)-2-(4-(4-(1,1-dioxidothiomorpholino)phen-yl)-1-(pyridazin-3-yl)-1H-pyrazol-3-yl)cyclohexanecarboxamide], the IC50 was 1.61 nM at human cathepsin K and 751 nM at human cathepsin F.

`COc1ccc(-n2cc(-c3ccc(N4CCS(=O)(=O)CC4)cc3)c([C@@H]3CCCC[C@H]3C(=O)NC3(C#N)CC3)n2)nn1` [Example 162, (1R,2R)-N-(1-cyanocyclopropyl)-2-(4-(4-(1,1-dioxidothiomorpholino)phen-yl)-1-(6-methoxypyridazin-3-yl)-1H-pyrazol-3-yl)cyclohexanecarboxamide]: the IC50 at human cathepsin K was 0.84 nM; at human cathepsin F it was 654 nM.

In the case of `N#CC1(NC(=O)[C@@H]2CCCC[C@H]2c2nn(-c3ccncc3)cc2-c2ccc(N3CCS(=O)(=O)CC3)cc2)CC1` [Example 163, (1R,2R)-N-(1-cyanocyclopropyl)-2-(4-(4-(1,1-dioxidothiomorpholino)phen-yl)-1-(pyridin-4-yl)-1H-pyrazol-3-yl)cyclohexanecarboxamide], the IC50 at human cathepsin K amounted to 0.32 nM; at human cathepsin F, 237 nM.

`N#CC1(NC(=O)[C@@H]2CCCC[C@H]2c2nn(-c3cccnc3)cc2-c2ccc(N3CCS(=O)(=O)CC3)cc2)CC1` [Example 164, (1R,2R)-N-(1-cyanocyclopropyl)-2-(4-(4-(1,1-dioxidothiomorpholino)phen-yl)-1-(pyridin-3-yl)-1H-pyrazol-3-yl)cyclohexanecarboxamide]: the IC50 on human cathepsin K came out at 0.48 nM; on human cathepsin F, 697 nM.

Take `N#CC1(NC(=O)[C@@H]2CCCC[C@H]2c2nn(-c3cncc(F)c3)cc2-c2ccc(N3CCS(=O)(=O)CC3)cc2)CC1` [Example 165, (1R,2R)-N-(1-cyanocyclopropyl)-2-(4-(4-(1,1-dioxidothiomorpholino)phen-yl)-1-(5-fluoropyridin-3-yl)-1H-pyrazol-3-yl)cyclohexanecarboxamide]: the IC50 at human cathepsin K is 0.9 nM; at human cathepsin F, 319 nM.

With `N#CC1(NC(=O)[C@@H]2CCCC[C@H]2c2nn(-c3ccc(C(F)(F)F)nc3)cc2-c2ccc(N3CCS(=O)(=O)CC3)cc2)CC1` [Example 166, (1R,2R)-N-(1-cyanocyclopropyl)-2-(4-(4-(1,1-dioxidothiomorpholino)phen-yl)-1-(6-(trifluoromethyl)pyridin-3-yl)-1H-pyrazol-3-yl)cyclohexanecarboxamide], the IC50 on human cathepsin K was 1.31 nM; at human cathepsin F it was 428 nM.

Turning to `Cc1ccc(-n2cc(-c3ccc(N4CCS(=O)(=O)CC4)cc3)c([C@@H]3CCCC[C@H]3C(=O)NC3(C#N)CC3)n2)cn1` [Example 167, (1R,2R)-N-(1-cyanocyclopropyl)-2-(4-(4-(1,1-dioxidothiomorpholino)phen-yl)-1-(6-methylpyridin-3-yl)-1H-pyrazol-3-yl)cyclohexanecarboxamide], the IC50 turned out to be 0.66 nM at human cathepsin K and 602 nM at human cathepsin F.

With `COc1ccc(-n2cc(-c3ccc(N4CCS(=O)(=O)CC4)cc3)c([C@@H]3CCCC[C@H]3C(=O)NC3(C#N)CC3)n2)cn1` [Example 168, (1R,2R)-N-(1-cyanocyclopropyl)-2-(4-(4-(1,1-dioxidothiomorpholino)phen-yl)-1-(6-methoxypyridin-3-yl)-1H-pyrazol-3-yl)cyclohexanecarboxamide], the IC50 on human cathepsin K was determined as 2.4 nM; at human cathepsin F, 763 nM.

With `N#CC1(NC(=O)[C@@H]2CCCC[C@H]2c2nn(-c3cc(F)cnc3F)cc2-c2ccc(N3CCS(=O)(=O)CC3)cc2)CC1` [Example 169, (1R,2R)-N-(1-cyanocyclopropyl)-2-(1-(2,5-difluoropyridin-3-yl)-4-(4-(1,1-dioxidothiomorpholino)phen-yl)-1H-pyrazol-3-yl)cyclohexanecarboxamide], the values for the IC50 at human cathepsin K and at human cathepsin F were 3.94 nM and 5670 nM, respectively.

As to `N#CC1(NC(=O)[C@@H]2CCCC[C@H]2c2nn(-c3cnc(O)nc3)cc2-c2ccc(N3CCS(=O)(=O)CC3)cc2)CC1` [Example 170, (1R,2R)-N-(1-cyanocyclopropyl)-2-(4-(4-(1,1-dioxidothiomorpholino)phen-yl)-1-(2-hydroxypyrimidin-5-yl)-1H-pyrazol-3-yl)cyclohexanecarboxamide], the IC50 was 1.88 nM at human cathepsin K and 2530 nM at human cathepsin F.

For the compound `Cn1cc(-n2cc(-c3ccc(N4CCS(=O)(=O)CC4)cc3)c([C@@H]3CCCC[C@H]3C(=O)NC3(C#N)CC3)n2)cn1` [Example 171, (1R,2R)-N-(1-cyanocyclopropyl)-2-(4-(4-(1,1-dioxidothiomorpholino)phen-yl)-1′-methyl-1′H-[1,4′-bipyrazol]-3-yl)cyclohexanecarboxamide], the IC50 turned out to be 3.38 nM at human cathepsin K and 2760 nM on human cathepsin F.
